# Earlier results as cited in publication PMC7898037, “Improving mitochondria and ER stability helps eliminate upper motor neuron degeneration that occurs due to mSOD1 toxicity and TDP‐43 pathology” (Clinical and Translational Medicine, 2021).
# Assays:
# [1] = tested on: SOD1^G93A‐expressing PC12 cell; conditions: PC12 cell‐based assay; cited from earlier work
# cortical neurons = tested on: cortical neurons; parameters: method as in earlier work; conditions: ref 53 (compound 2), ref 54 (NU‐9); cited from earlier work
# SOD1 model mouse = conditions: cited from earlier work
smiles,measurement,setting,value
O=C1CC(=O)CC(c2ccc(F)cc2)C1 [compound 1],effect on mSOD1‐induced protein aggregation,[1],inhibit mSOD1‐induced protein aggregation
same,effect on mSOD1‐mediated toxicity,[1],reduce mSOD1‐mediated toxicity
O=C1CC(=O)CC(c2cc(C(F)(F)F)cc(C(F)(F)F)c2)C1 [compound 2],penetration into neurons,cortical neurons,did not penetrate into neurons
Nc1nc2ccc(OC(F)(F)F)cc2s1 [riluzole],longevity of the misfolded SOD1 (mSOD1) mouse model,SOD1 model mouse,failed to improve the longevity
